Measured values: patent US6824786B2, “Compositions comprising phenyl-glycine derivatives” (priority 2001, dated 2004)

Columns and labels:
Type in all cases: in vivo, human
[1] = tested on: severe dry skin condition of X-linked ichthyosis; assay: Topical treatment of X-linked ichthyosis skin under Hays Occlusive Chamber
chronic plaque psoriasis = assay: Topical treatment of chronic plaque psoriasis
Source text: A subject, having chronic plaque psoriasis for 55 year duration resistant to all forms of topical therapy, topically applied N-acetyl-4-hydroxyphenyl-glycinamide 10% cream twice daily to a thick plaque of psoriasis on the right elbow. […] The clinical evaluation was judged to be a 75% improvement after five days of topical treatment. […] Clinical evaluation rated the improvement to be about 90%. Three patients having chronic plaque psoriasis resistant to most forms of topical therapy topically applied N-acetyl-4-acetoxyphenyl-glycinamide 5% cream (Example 24) twice daily to thick plaques of psoriasis. […] The clinical evaluation was judged to be an 80% improvement after one week of topical treatment. […] Clinical evaluation rated the improvement on three patients to be from 95 to 100%.

forearm skin = assay: Forearm skin thickness by micrometer calipers (skin changes associated with aging); conditions: 10% cream twice daily to right forearm for four weeks; subject
Method: In one of the studies related to skin changes associated with aging, skin thickness was measured by micrometer calipers as follows: The skin was grasped with a 2×6 cm metal hinge; the internal faces of which were coated with emery cloth to prevent slippage, and manually squeezed to threshold subject discomfort. Combined thickness of two whole-skin layers including thickness of the two hinge leaves was measured with micrometer calipers. Thickness of the two hinge leaves was subtracted to determine the actual thickness of two whole-skin layers. Triplicate measurements on treated sites were conducted and an average number was used for calculation of the skin thickness. A subject, applied topically twice daily N-acetyl-4-hydroxyphenyl-glycinamide 5% cream to their left forearm for eight weeks. […] While there was no change in skin thickness of their right forearm, their left forearm had increased 49% in skin thickness as measured by the micrometer calipers (Example 1). […] While there was no change in skin thickness of their right forearm, their left forearm had increased 24% in skin thickness as measured by the micrometer calipers (Example 1). […] While there was no change in skin thickness of their left forearm, their right forearm had increased 25% in skin thickness as measured by the micrometer calipers (Example 1).

[2] = 5% cream twice daily, after one week, three patients

| Compound | conclusion: topical treatment of severe dry skin and symptomatic relief of congenital ichthyosis ([1]; 10% cream) | clinical appearance of treated site after stopping treatment ([1]; 10% cream one week under chamber, then another week without any further treatment) | clinical appearance of treated site ([1]; 10% cream, 1 cm^2 involved skin of back under Hays Occlusive Chamber, after one week, subject) | erythema and thickness of the plaques (chronic plaque psoriasis; 5% cream (Example 24) twice daily, after one week, three patients) | clinical evaluation, improvement (chronic plaque psoriasis; [2]) [%] | psoriatic scales (chronic plaque psoriasis; [2]) | clinical appearance of treated area (chronic plaque psoriasis; 5% cream twice daily, after two weeks, three patients) | conclusion: topical treatment of psoriasis (chronic plaque psoriasis; cream twice daily) | appearance of treated forearm (forearm skin) | increase in skin thickness (forearm skin) [%] |
| --- | --- | --- | --- | --- | --- | --- | --- | --- | --- | --- |
| COC(=O)CNc1ccc(O)cc1 [4-hydroxyphenyl-glycine methyl ester] | therapeutically effective | remained normal in clinical appearance | free of all evidence of ichthyosis |  |  |  |  |  |  |  |
| CC(=O)NC(=O)CNc1ccc(OC(C)=O)cc1 [N-acetyl-4-acetoxyphenyl-glycinamide] |  |  |  | diminished substantially | 80 | no evidence of any psoriatic scales | clinically normal | therapeutically effective | more firm, smooth, plump and minimally wrinkled when lifted | 25 |
